# Measurements from article PMC2481421, “Gene expression response in target organ and whole blood varies as a function of target organ injury phenotype” (Genome Biology, 2008).
# Where “and” joins values, the source holds several entries; their conditions need not be identical. Equal values may be shown once. Entries after “also recorded” stand apart in the source; their conditions may differ.
# Experiments:
# [1] = In-life observations: body weight, gross findings before and at necropsy; format: in vivo, Male Fischer 344/N rats; settings: individual animals
# Description: Doses were determined with pilot experiments. […] Serum was collected for clinical chemistry.
# [2] = system: liver; assay: Liver histopathology (H&E sections of left liver lobe, severity graded) after a single dose; settings: for Primary site of livery injury: rat, single administration
# Description: The animals were acclimated for 14 days and observed for absence of disease.
# Doses were determined with pilot experiments. For each chemical, doses that elicited a sub-toxic ('low'), a moderately toxic ('medium') or a overtly toxic ('high') response 24 hours after treatment were selected. […] For each compound, control animal groups were treated with vehicle alone. All animals were fasted for 12-18 hours prior to exposure. Groups of four to six animals were dosed between 8:30 and 9:30 a.m.; thereafter, feed was provided ad libitum. After 6, 24 or 48 hours of treatment, animals were anesthetized by isoflurane anesthesia. Whole blood was collected via retro-orbital plexus for hematology and gene expression analysis. Serum was collected for clinical chemistry. The animals were euthanized while under anesthesia by cervical dislocation and necropsied within 4 minutes of sacrifice. The left liver lobe was promptly removed and two defined cross sections were placed in 10% neutral buffered formalin for subsequent histopathology.
# The cross sections that were fixed by immersion in 10% neutral buffered formalin (see 'In-life studies' section above) were transferred to histology grade alcohol for 18-24 hours after necropsy. Tissues were then processed, embedded in paraffin, sectioned at 5 microns, and stained with hematoxylin and eosin. A pathologist completed the initial microscopic evaluation of each liver sample for a given compound. […] An independent pathology quality assessment review was performed by a second pathologist on the initial histopathological findings.
# [3] = I.P., PBS vehicle, 25 mg/kg, 48 hours
# [4] = I.P., PBS vehicle, 100 mg/kg, 48 hours
# [5] = I.P., PBS vehicle, 400 mg/kg, 48 hours
# [6] = Gavage, corn oil, 10 mg/kg, 6 hours
# [7] = Gavage, corn oil, 10 mg/kg, 24 hours
# [8] = Gavage, corn oil, 10 mg/kg, 48 hours
# [9] = Gavage, corn oil, 30 mg/kg, 24 hours
# [10] = Gavage, corn oil, 50 mg/kg, 6 hours
# [11] = Gavage, corn oil, 50 mg/kg, 24 hours
# [12] = Gavage, corn oil, 50 mg/kg, 48 hours
# [13] = Gavage, corn oil, 300 mg/kg, 6 hours
structure (smiles),measurement,setting,value
N[C@H]1C(O)O[C@H](CO)[C@H](O)[C@@H]1O (stereo partly shown) [Galactosamine],Clin/Ob Prior to Necropsy,"[1]; 25 mg/kg, I.P., PBS, 6 hours",Normal
same,Gross Findings,"[1]; 25 mg/kg, I.P., PBS, 6 hours","No Gross Findings; also recorded: Liver left lobe mottled, median lobe mottled with dark edges"
same,Clin/Ob Prior to Necropsy,"[1]; 25 mg/kg, I.P., PBS, 24 hours",Normal
same,Final Body Wt.,"[1]; 25 mg/kg, I.P., PBS, 24 hours",288.30 g and 287.60 g and 307.80 g and 298.50 g
same,Gross Findings,"[1]; 25 mg/kg, I.P., PBS, 24 hours",No Gross Findings
same,Clin/Ob Prior to Necropsy,"[1]; 25 mg/kg, I.P., PBS, 48 hours",Normal
same,Final Body Wt.,"[1]; 25 mg/kg, I.P., PBS, 48 hours",291.10 g and 291.80 g and 294.20 g
same,Gross Findings,"[1]; 25 mg/kg, I.P., PBS, 48 hours",No Gross Findings
same,Clin/Ob Prior to Necropsy,"[1]; 100 mg/kg, I.P., PBS, 6 hours",Normal
same,Gross Findings,"[1]; 100 mg/kg, I.P., PBS, 6 hours","Liver left lobe mottled, median lobe mottled with dark edges; also recorded: No Gross Findings"
same,Clin/Ob Prior to Necropsy,"[1]; 100 mg/kg, I.P., PBS, 24 hours",Normal
same,Final Body Wt.,"[1]; 100 mg/kg, I.P., PBS, 24 hours",270.10 g and 280.10 g and 305.10 g and 290.70 g
same,Gross Findings,"[1]; 100 mg/kg, I.P., PBS, 24 hours",No Gross Findings; also recorded: Liver median lobe mottled
same,Clin/Ob Prior to Necropsy,"[1]; 400 mg/kg, I.P., PBS, 6 hours",Normal
same,Gross Findings,"[1]; 400 mg/kg, I.P., PBS, 6 hours","No Gross Findings; also recorded: Liver left lobe mottled, median lobe mottled with dark edges"
same,Clin/Ob Prior to Necropsy,"[1]; 400 mg/kg, I.P., PBS, 24 hours",Normal
same,Final Body Wt.,"[1]; 400 mg/kg, I.P., PBS, 24 hours",270.50 g and 268.20 g and 301.80 g and 280.20 g
same,Gross Findings,"[1]; 400 mg/kg, I.P., PBS, 24 hours","Liver left lobe with dark edges, median lobe mottled; also recorded: Liver left lobe mottled with dark edges, median lobe mottled; also recorded: No Gross Findings; also recorded: Liver left and median lobes dark and mottled"
same,Clin/Ob Prior to Necropsy,[1]; [3],Normal
same,Final Body Wt.,[1]; [3],287.20 g
same,Gross Findings,[1]; [3],No Gross Findings
same,Clin/Ob Prior to Necropsy,[1]; [4],Normal
same,Final Body Wt.,[1]; [4],284.20 g and 284.00 g and 295.90 g and 294.00 g
same,Gross Findings,[1]; [4],No Gross Findings
same,Clin/Ob Prior to Necropsy,[1]; [5],"Piloerection, Decreased muscle tone; also recorded: Normal"
same,Final Body Wt.,[1]; [5],263.20 g and 263.40 g and 260.90 g and 265.30 g
same,Gross Findings,[1]; [5],"Liver left and median lobes pale with mildly rough surface and dark edges; also recorded: Liver left lobe firm and pale with minimally rough surface and dark edges, median lobe firm, pale, and mottled with minimally rough surface; also recorded: Liver left lobe pale, mottled, and firm; median lobe pale with dark areas and firm"
same,biliary hyperplasia,[2]; 48 hours,evoked biliary hyperplasia
same,"extent of hepatocellular necrosis, amount of inflammatory cell infiltrates and/or indications of hepatocellular repair (mitosis) across animals","[2]; high dose, 48 hour",variability
same,Primary site of livery injury,[2],Random
C[C@H]1C(=O)O[C@@H]2CCN3CC=C(COC(=O)[C@](C)(O)[C@]1(C)O)[C@H]23 [Monocrotaline],Clin/Ob Prior to Necropsy,[1]; [6],normal
same,Gross Findings,[1]; [6],No Gross Findings
same,Clin/Ob Prior to Necropsy,[1]; [7],normal
same,Final Body Wt.,[1]; [7],224.70 g and 231.10 g and 243.30 g and 240.90 g
same,Gross Findings,[1]; [7],No Gross Findings; also recorded: Liver - Herniated diaphragmatic nodule
same,Clin/Ob Prior to Necropsy,[1]; [8],normal
same,Final Body Wt.,[1]; [8],241.60 g and 239.40 g and 266.80 g and 243.40 g
same,Gross Findings,[1]; [8],Liver median lobe dark area 1x1x1 mm; also recorded: Liver median lobe red area 2x2x2 mm; also recorded: No Gross Findings; also recorded: Liver median lobe right side with red area 2x1x1 mm
same,Clin/Ob Prior to Necropsy,[1]; [9],Piloerection
same,Final Body Wt.,[1]; [9],224.70 g and 224.00 g and 229.60 g and 222.60 g
same,Gross Findings,[1]; [9],"Liver left lobe dark and mottled with rough surface, median lobe dark and mottled; also recorded: Liver left and median lobes dark; also recorded: Liver left lobe dark and mottled, median lobe dark; kidney dark"
same,Clin/Ob Prior to Necropsy,[1]; [10],normal
same,Gross Findings,[1]; [10],No Gross Findings
same,Clin/Ob Prior to Necropsy,[1]; [11],normal
same,Final Body Wt.,[1]; [11],223.50 g and 226.80 g and 245.00 g and 241.70 g
same,Gross Findings,[1]; [11],"Liver left lobe mottled, median lobe mottled with minimal roughening of surface; also recorded: No Gross Findings; also recorded: Liver median lobe with dark area 2x2x2 mm"
same,Clin/Ob Prior to Necropsy,[1]; [12],normal
same,Final Body Wt.,[1]; [12],231.90 g and 232.10 g and 240.80 g and 232.90 g
same,Gross Findings,[1]; [12],"Liver left lobe with red area 10x2x2 mm, median lobe dark and mottled; also recorded: Liver left lobe firm, median lobe left side, ventral surface dark, dorsal surface with red area 2x2x2 mm, right side mottled and firm; also recorded: Liver median lobe right and left side with dark lower edges, dorsal surface mottled; also recorded: Liver median lobe with dark edges, right side dark and mottled, dorsal surface dark and mottled with mild roughening of surface"
same,Clin/Ob Prior to Necropsy,[1]; [13],normal
same,Gross Findings,[1]; [13],"No Gross Findings; also recorded: Liver, median lobe tan; also recorded: Liver, left lobe mottled, median lobe dark on edges, patchy 2x2x3 mm; also recorded: Liver left and median lobes mottled"
same,Primary site of livery injury,[2],Centrilobular
